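Each compound was tested at five concentrations against cells in 96-well plates for 48 hours. GI50 = concentration required for 50% inhibition of growth. Definition used: TGI = concentration required for complete inhibition of growth.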
Key:
Experiment in all cases: DTP human tumour cell line panel, 48 h
K-562 leukemia = test system: K-562 leukemia
A549 NSCLC = test system: A549 NSCLC
SN12C renal = test system: SN12C renal
SK-MEL-28 melanoma = test system: SK-MEL-28 melanoma
NCI-H460 lung = test system: NCI-H460 lung
SK-MEL-2 melanoma = test system: SK-MEL-2 melanoma
786-0 renal = test system: 786-0 renal
HOP-92 NSCLC = test system: HOP-92 NSCLC
NCI-H226 lung = test system: NCI-H226 lung
MCF7 breast = test system: MCF7 breast

Compound | GI50 (K-562 leukemia) [µM] | TGI (K-562 leukemia) [µM] | GI50 (A549 NSCLC) [µM] | TGI (A549 NSCLC) [µM] | GI50 (SN12C renal) [µM] | TGI (SN12C renal) [µM] | GI50 (SK-MEL-28 melanoma) [µM] | TGI (SK-MEL-28 melanoma) [µM] | GI50 (NCI-H460 lung) [µM] | TGI (NCI-H460 lung) [µM] | GI50 (SK-MEL-2 melanoma) [µM] | TGI (SK-MEL-2 melanoma) [µM] | GI50 (786-0 renal) [µM] | TGI (786-0 renal) [µM] | GI50 (HOP-92 NSCLC) [µM] | TGI (HOP-92 NSCLC) [µM] | GI50 (NCI-H226 lung) [µM] | TGI (NCI-H226 lung) [µM] | GI50 (MCF7 breast) [µM] | TGI (MCF7 breast) [µM]
COc1cc2c(cc1OCCCCC(=O)Nc1ccc(-c3nc4ccccc4s3)cc1)N=C[C@@H]1CCCN1C2=O | 1.75 | 11 | 3.38 | 11.2 | 2.81 | 9.72 | 2.23 | 5.81 | 1.67 | 3.6 | 1.95 | 4.22 | 1.56 | 3.51 | 1.72 | 4.63 | 2.91 | 7.83 | 0.732 | 3.43
COc1ccc(N2CCN(CC(=O)N3CCN(c4nnc(-c5ccccc5)c(-c5ccccc5)n4)CC3)CC2)cc1 | 5.6 | > 100 | 16.2 | > 100 | 8.64 | > 100 | 11.9 | > 100 | 5.96 | > 100 | 51.3 | > 100 | 4.91 | > 100 | 7.13 | > 94.4 | > 100 | > 100 | 4.44 | 34.2
COC(=O)c1[nH]nc(-c2ccccc2)c1N1CCCCC1 | 57.2 | > 100 | 43.6 | > 100 | 15.5 | 41.5 | 52.1 | > 100 | 38.1 | > 100 | > 100 | > 100 | 21.1 | 57.9 | 19 | 64 | 13.2 | 36.5 | 29.5 | > 100
Cc1ccc(C(=O)Nc2ccc(CN3CCN(C)CC3)c(C(F)(F)F)c2)cc1C#Cc1cncc2ncccc12 | – | 1.67 | 0.473 | 5.24 | 0.24 | 11.1 | 0.286 | 1.55 | 0.428 | 5.02 | 0.191 | 0.599 | 0.48 | 1.94 | 0.147 | 1.28 | 0.625 | 6.19 | 1.46 | 3.44
C[C@@H]1CN(Cc2ccc(/C=C/c3n[nH]c4ccc5nc(-c6cn[nH]c6C(F)(F)F)c6c(c5c34)CCCC6)cc2)C[C@H](C)O1 | 2.81 | 24.7 | 2.56 | 15 | 2.46 | 14.9 | 7.11 | 21.2 | 1.35 | 10.2 | 13.5 | 33.8 | 4.09 | 17.5 | 3.12 | 17.9 | 6.19 | 32.8 | 1.53 | 14.9
CC(=O)OC1CCC2(C)C(CCC3C2CCC2(C)C(C4=CC(=O)OC4)CCC32)C1 (centres undefined) | 2.02 | 5.27 | 3.05 | 19.7 | 11.1 | 99.1 | 4.75 | 22 | 0.681 | 11 | 7.72 | 34.4 | 15.6 | 39.7 | 2.93 | 22.6 | 22.1 | 65.1 | 9.07 | 95.7
Nc1c(C(=O)Nc2cccc3ccccc23)sc2nc3c(cc12)CCCC3 | 0.349 | > 100 | 3.33 | > 100 | 6 | > 100 | 19.2 | > 100 | 2.98 | > 100 | 1.04 | > 100 | 1.11 | > 100 | 0.0769 | 9.29 | 17.5 | > 100 | 0.0577 | > 100
c1ccc(-c2n(Cc3ccc4ccccc4n3)c3ccccc3[n+]2Cc2ccc3ccccc3n2)cc1 | 0.141 | 1.34 | 0.346 | 2.06 | 0.302 | 1.22 | 0.359 | 1.44 | 0.367 | 1.36 | 0.298 | 1.11 | 1.03 | 2.33 | 0.143 | 0.563 | 0.424 | 2.64 | 0.274 | 1.2
COc1cc(C2c3cc4c(cc3C3OC(=O)C2C3CO)OCO4)cc(OC)c1OC (centres undefined) | 0.0205 | > 100 | 0.0294 | > 100 | 0.0457 | > 100 | 8.68 | > 100 | 0.0299 | > 100 | 0.0337 | > 100 | 0.0437 | > 100 | < 0.0108 | 0.0869 | 0.0616 | > 100 | < 0.01 | > 100

— PubChem BioAssay (NCI)
